# Assay results reported in patent publication US9464077B2, “Nitrogen-containing aromatic heterocyclic compound” (Astellas Pharma Inc., priority 2012, dated 2016).
# Experiments:
# [1] = tested on: FGFR3-TACC3_v3 (N-FLAG) fusion polypeptide; experiment: In vitro kinase activity inhibition (HTRF KinEASE-TK); format: biochemical, human; settings: 100 μM ATP
# [2] = tested on: UM-UC-14 (FGFR3_S249C-positive cells, bladder cancer); experiment: Antitumor test on UM-UC-14 subcutaneous xenograft; format: in vivo, nude mice; settings: oral, once a day; for Antitumor Activity, % regression / inhibition in vivo at 1 mg/kg/day: 1 mg/kg/day; for Antitumor Activity, % regression: tumor volume at Day 11 vs Day 1
# Experimental: 3×10^6 UM-UC-14 cells per 0.1 mL (PBS+matrigel, 1:1) were inoculated subcutaneously into the right flank of nude mice (CAnN, Cg-Foxn1nu/CrlCrlj (nu/nu), male, 4- to 5-week-old), and when their tumor size reached about 250 mm^3, drug administration was started (Day 1). The drug was administered once a day and the tumor size was measured with a caliper and the body weight was also measured every two or three days. The antitumor effect was finally determined based on the tumor volume (mm^3; minor axis (mm)×minor axis (mm)×major axis (mm)/2) at Day 11 (n=3-5). To the control group, 0.5% MC (methyl cellulose) was administered. […] “% regression” indicates what percentage of regression could be achieved compared with the tumor volume at Day 1. Here, the tumor volume at Day 1 means tumor volume immediately before drug administration.
# [3] = tested on: bladder cancer patient-derived cell line RT4; experiment: Anchorage-independent cell growth inhibition, spheroid plate; format: cell-based; settings: Homo sapiens, 96 h, 4 days, read-out: growth inhibition rate RT4; for inhibition at 0.001 µM: 1 nM; for inhibition at 0.01 µM: 10 nM; for inhibition at 0.1 µM: 100 nM
# [4] = tested on: FGFR3-TACC3_v1 (N-FLAG) fusion polypeptide; experiment: In vitro kinase activity inhibition (HTRF KinEASE-TK); format: biochemical, human; settings: 100 μM ATP
# [5] = tested on: FGFR3-TACC3_v2 (N-FLAG) fusion polypeptide; experiment: as above; format: biochemical, human; settings: 100 μM ATP
# [6] = target: human recombinant FGFR2 (Homo sapiens, UniProt P21802); experiment: FGFR2 enzyme assay (LabChip EZ Reader)
# human recombinant FGFR2, sequence (P21802 22-821): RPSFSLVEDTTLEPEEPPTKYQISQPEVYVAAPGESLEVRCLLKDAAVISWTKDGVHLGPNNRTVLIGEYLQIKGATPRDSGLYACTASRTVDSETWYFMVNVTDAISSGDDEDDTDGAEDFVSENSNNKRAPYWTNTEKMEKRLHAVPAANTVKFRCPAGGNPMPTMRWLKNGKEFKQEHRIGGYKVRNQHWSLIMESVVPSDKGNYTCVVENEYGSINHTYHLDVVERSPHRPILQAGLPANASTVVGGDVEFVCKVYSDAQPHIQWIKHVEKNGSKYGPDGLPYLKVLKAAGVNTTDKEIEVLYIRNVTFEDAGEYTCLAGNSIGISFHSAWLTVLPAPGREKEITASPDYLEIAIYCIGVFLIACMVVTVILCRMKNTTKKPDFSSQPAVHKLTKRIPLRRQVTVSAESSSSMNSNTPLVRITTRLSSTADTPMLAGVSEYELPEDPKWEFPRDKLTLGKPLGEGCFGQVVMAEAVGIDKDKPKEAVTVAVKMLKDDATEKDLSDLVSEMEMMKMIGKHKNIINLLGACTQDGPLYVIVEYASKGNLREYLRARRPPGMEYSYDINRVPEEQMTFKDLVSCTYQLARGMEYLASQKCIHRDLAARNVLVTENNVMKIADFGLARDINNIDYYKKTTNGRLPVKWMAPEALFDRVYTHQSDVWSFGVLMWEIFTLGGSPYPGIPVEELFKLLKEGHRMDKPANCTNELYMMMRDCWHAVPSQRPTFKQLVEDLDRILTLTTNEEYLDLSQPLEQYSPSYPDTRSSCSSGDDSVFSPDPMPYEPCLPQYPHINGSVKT
# Experimental: (§1) The compound was diluted with a solution of dimethyl sulfoxide (DMSO) (10-fold common ratio, 4 portions) before dilution with a reaction buffer (100 mM HEPES (pH7.5), 0.003% Brij-35, 0.004% Tween 20, 0.5 mM DTT, and 10 mM MgCl2) so that the final DMSO concentration was 2%. To 4 μL of the compound solution in a 384-well plate, 2 μL each of FGFR1 enzyme (2 or 3 ng/μL), FGFR2 enzyme (2 ng/μL), or FGFR3 enzyme (6 ng/μL) which were diluted with the reaction buffer was added. […] After the reaction was stopped, the reaction mixture was measured with a LabChip EZ Reader. The IC50 values were calculated by non-linear regression based on the inhibition rates obtained.
# [7] = tested on: FGFR3_S249C/NIH3T3 cells; experiment: Growth assay of cells with forced expression of mutant FGFR3; format: cell-based; settings: Mus musculus, NIH3T3, 120 h; 5 days after addition, CellTiter-Glo; read-out: IC50 (growth inhibition)
# Experimental: FGFR3_S249C/NIH3T3 cells were added to a 96-well spheroid plate (U bottom) at a concentration of 3000 cells/well/90 μL, and the compound solution (10 μL) was added thereto on the next day (final DMSO concentration: 0.1%). The compound solution was prepared by serially diluting the compound with DMSO at a 3-fold common ratio (9 portions and DMSO only) from the maximum concentration of 10 mM and then diluted 100-fold with a culture medium (D-MEM, 10% FBS). 5 days after the addition of the compound, the growth inhibition caused by the compound was evaluated by Promega (G7573) CellTiter-Glo™ Luminescent Cell Viability Assay.
# [8] = tested on: FGFR3-TACC3_v4-expressing NIH3T3 cells; experiment: Anchorage-independent cell growth inhibition, spheroid plate; format: cell-based; settings: Mus musculus, NIH3T3, 96 h, 4 days, read-out: growth inhibition rate v4; for inhibition at 0.001 µM: 1 nM; for inhibition at 0.01 µM: 10 nM; for inhibition at 0.1 µM: 100 nM
# Excerpt: Measurement for anchorage-independent cell growth (colony method, etc.) is known to be a system for investigating the anticancer action (pharmacological effect) of compounds (Clinical Oncology, second edition, Cancer and Chemotherapy Publishers Inc.). As a method for measuring the non-adhesive growth of cells, there is the following method using a spheroid plate as referred to above in place of the colony method.
# In a 96-well spheroid plate (Sumilon Celltight Spheroid 96U; Sumitomo Bakelite), FGFR3-TACC3_v1-expressing NIH3T3 cells, FGFR3-TACC3_v2-expressing NIH3T3 cells, FGFR3-TACC3_v3-expressing NIH3T3 cells, and FGFR3-TACC3_v4-expressing NIH3T3 cells were each seeded at 1×10^3 cells per well in D-MEM media (Invitrogen) containing 10% fetal bovine serum. […] A well supplemented with only medium was also prepared for a positive control. Culturing was performed overnight in the presence of 5% CO2 at 37° C. followed by addition of test compounds (final concentrations: 100 nM, 10 nM, and 1 nM). As a negative control, DMSO used as a solvent for the compounds was added at the same concentration (0.1%) as in the case of addition of the compounds. Then, culturing was performed in the presence of 5% CO2 at 37° C. for 4 days, and a cell counting reagent (CellTiter-Glo™ Luminescent Cell Viability Assay; Promega) was added and the resulting mixture was stirred for 20 minutes followed by measurement with a luminometer.
# [9] = tested on: FGFR3-BAIAP2L1-expressing NIH3T3 cells; experiment: as above; format: cell-based; settings: Mus musculus, NIH3T3, 96 h, 4 days, read-out: growth inhibition rate FGFR3-BAIAP2L1-expressing NIH3T3 Cells; for inhibition at 0.001 µM: 1 nM; for inhibition at 0.01 µM: 10 nM; for inhibition at 0.1 µM: 100 nM
# Experimental: In a 96-well spheroid plate (Sumilon Celltight Spheroid 96U; Sumitomo Bakelite), FGFR3-BAIAP2L1-expressing NIH3T3 cells were seeded at 1×10^3 cells per well in D-MEM medium containing 10% fetal bovine serum. A well supplemented with only medium was also prepared for a positive control. Culturing was performed overnight in the presence of 5% CO2 at 37° C. followed by addition of test compounds (final concentrations: 100 nM, 10 nM, and 1 nM). As a negative control, DMSO used as a solvent for the compounds was added at the same concentration (0.1%) as in the case of addition of the compounds. Then, culturing was performed in the presence of 5% CO2 at 37° C. for 4 days, and a cell counting reagent (CellTiter-Glo™ Luminescent Cell Viability Assay; Promega) was added and the resulting mixture was stirred for 20 minutes followed by measurement with a luminometer.
# [10] = target: human recombinant FGFR3 (Homo sapiens, UniProt P22607); experiment: FGFR3 enzyme assay (LabChip EZ Reader)
# human recombinant FGFR3, sequence (P22607 23-806): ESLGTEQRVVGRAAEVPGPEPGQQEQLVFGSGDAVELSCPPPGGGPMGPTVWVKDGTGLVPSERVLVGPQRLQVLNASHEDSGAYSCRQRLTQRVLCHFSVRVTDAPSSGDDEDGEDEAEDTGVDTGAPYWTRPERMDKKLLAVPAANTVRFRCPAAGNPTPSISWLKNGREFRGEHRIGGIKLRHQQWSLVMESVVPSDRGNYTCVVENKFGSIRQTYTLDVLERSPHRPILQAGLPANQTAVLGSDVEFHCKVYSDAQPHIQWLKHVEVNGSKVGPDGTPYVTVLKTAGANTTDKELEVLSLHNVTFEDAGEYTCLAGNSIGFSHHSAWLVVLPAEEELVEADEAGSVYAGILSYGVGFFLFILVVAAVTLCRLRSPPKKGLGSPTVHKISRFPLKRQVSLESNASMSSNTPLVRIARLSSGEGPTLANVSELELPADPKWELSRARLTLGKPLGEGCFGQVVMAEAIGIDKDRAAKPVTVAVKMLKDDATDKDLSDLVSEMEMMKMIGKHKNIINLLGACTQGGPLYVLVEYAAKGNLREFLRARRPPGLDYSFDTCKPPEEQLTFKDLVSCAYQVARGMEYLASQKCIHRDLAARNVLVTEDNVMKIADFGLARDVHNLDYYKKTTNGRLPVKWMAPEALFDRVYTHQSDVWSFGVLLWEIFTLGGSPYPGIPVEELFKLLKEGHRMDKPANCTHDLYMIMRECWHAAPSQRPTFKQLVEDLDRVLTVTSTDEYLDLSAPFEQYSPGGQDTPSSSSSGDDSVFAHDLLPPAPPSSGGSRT
# Experimental: as §1
# [11] = target: human recombinant FGFR1 (Homo sapiens, UniProt P11362); experiment: FGFR1 enzyme assay (LabChip EZ Reader)
# human recombinant FGFR1, sequence (P11362 22-822): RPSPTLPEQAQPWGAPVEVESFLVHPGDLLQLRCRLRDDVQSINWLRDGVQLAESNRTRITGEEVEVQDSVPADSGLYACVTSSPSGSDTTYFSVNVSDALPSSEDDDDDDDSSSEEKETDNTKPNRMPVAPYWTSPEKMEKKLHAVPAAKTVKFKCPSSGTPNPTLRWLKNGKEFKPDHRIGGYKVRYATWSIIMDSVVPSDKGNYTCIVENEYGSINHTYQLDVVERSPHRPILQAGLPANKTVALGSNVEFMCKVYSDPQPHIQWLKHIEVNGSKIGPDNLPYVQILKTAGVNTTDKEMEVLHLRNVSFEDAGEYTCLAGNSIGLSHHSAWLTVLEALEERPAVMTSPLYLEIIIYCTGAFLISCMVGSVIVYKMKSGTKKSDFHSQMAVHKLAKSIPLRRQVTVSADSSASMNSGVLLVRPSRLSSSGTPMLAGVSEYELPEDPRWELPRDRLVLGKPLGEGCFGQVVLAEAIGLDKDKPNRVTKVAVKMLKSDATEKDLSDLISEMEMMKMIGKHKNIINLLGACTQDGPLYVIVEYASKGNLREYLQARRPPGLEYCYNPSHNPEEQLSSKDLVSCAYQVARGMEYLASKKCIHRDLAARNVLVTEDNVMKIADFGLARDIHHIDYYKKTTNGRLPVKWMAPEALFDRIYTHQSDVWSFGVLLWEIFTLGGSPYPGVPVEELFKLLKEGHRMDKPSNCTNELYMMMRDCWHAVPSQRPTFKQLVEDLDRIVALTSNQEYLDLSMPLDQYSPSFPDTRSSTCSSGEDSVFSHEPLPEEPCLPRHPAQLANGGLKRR
# Experimental: as §1
# [12] = tested on: bladder cancer patient-derived cell line RT-112; experiment: Anchorage-independent cell growth inhibition, spheroid plate; format: cell-based; settings: Homo sapiens, RT-112, 96 h, 4 days, read-out: growth inhibition rate RT-112
# [13] = Mus musculus, UMUC14, 264 h, tumor volume at Day 11
smiles,measurement,setting,value
COc1cc(OC)c(F)c(COc2cnc(Nc3ccc(N4CCN(C)CC4)cc3)nc2)c1F [Example 122],rate of inhibiting kinase activity v3,[1]; 1 nM,45%
same,rate of inhibiting kinase activity v3,[1]; 10 nM,85%
same,rate of inhibiting kinase activity v3,[1]; 100 nM,97%
same,"Antitumor Activity, % regression",[2],15%
same,inhibition at 0.001 µM,[3],6%
same,inhibition at 0.01 µM,[3],43%
same,inhibition at 0.1 µM,[3],63%
same,rate of inhibiting kinase activity v1,[4]; 1 nM,34%
same,rate of inhibiting kinase activity v1,[4]; 10 nM,80%
same,rate of inhibiting kinase activity v1,[4]; 100 nM,94%
same,rate of inhibiting kinase activity v2,[5]; 1 nM,27%
same,rate of inhibiting kinase activity v2,[5]; 10 nM,80%
same,rate of inhibiting kinase activity v2,[5]; 100 nM,95%
same,IC50,[6],2 nM
same,IC50,[7],7 nM
same,inhibition at 0.001 µM,[8],19%
same,inhibition at 0.01 µM,[8],82%
same,inhibition at 0.1 µM,[8],89%
same,inhibition at 0.001 µM,[9],17%
same,inhibition at 0.01 µM,[9],83%
same,inhibition at 0.1 µM,[9],90%
same,IC50,[10],2 nM
COc1cc(Nc2ncc(OCc3c(F)c(OC)cc(OC)c3F)cn2)ccc1N1CCC2(CCNCC2)CC1 [Example 95],inhibition in vivo at 3 mg/kg/day,"[2]; Mus musculus, UMUC14, 264 h, 3 mg/kg/day, tumor volume at Day 11",97%
same,IC50,[7],57 nM
same,IC50,[10],2 nM
COc1cc(Nc2ncc(CCc3c(F)c(OC)cc(OC)c3F)cn2)ccc1N1CCN(C)CC1 [Ex 7],IC50,[11],2 nM
COc1cc(Nc2ncc(OCc3c(F)c(OC)cc(OC)c3F)cn2)ccc1N1CCN(C2CCN(C)CC2)CC1 [Example 84],"Antitumor Activity, % regression",[2],34%
same,IC50,[11],2 nM
same,IC50,[6],2 nM
same,IC50,[7],16 nM
same,IC50,[10],1 nM
COc1cc(OC)c(F)c(COc2cnc(Nc3cnn(CC(=O)N4CC(O)C4)c3)nc2)c1F [Example 115],inhibition in vivo at 1 mg/kg/day,[2]; [13],70%
same,IC50,[11],2 nM
same,IC50,[7],36 nM
same,IC50,[10],2 nM
COc1cc(Nc2ncc(OCc3c(F)c(OC)cc(OC)c3F)cn2)ccc1N1C[C@@H](C)N[C@@H](C)C1 [Example 92],inhibition in vivo at 1 mg/kg/day,[2]; [13],49%
same,IC50,[6],2 nM
same,IC50,[7],7 nM
same,IC50,[10],1 nM
COc1cc(OC)c(Cl)c(COc2cnc(Nc3cnn(C4CCNCC4)c3)nc2)c1Cl [Example 72],inhibition in vivo at 1 mg/kg/day,[2]; [13],30%
same,IC50,[6],2 nM
same,IC50,[7],24 nM
same,IC50,[10],2 nM
COc1cc(OC)c(F)c(CCc2cnc(Nc3ccc(N4CCC(N5CCN(C)CC5)CC4)c(F)c3)nc2)c1F [Example 33],inhibition in vivo at 1 mg/kg/day,[2]; [13],70%
same,IC50,[11],2 nM
same,IC50,[7],26 nM
same,IC50,[10],2 nM
COc1cc(OC)c(F)c(COc2cnc(Nc3cnn(C[C@@H](O)CO)c3)nc2)c1F [Example 116],rate of inhibiting kinase activity v3,[1]; 1 nM,41%
same,rate of inhibiting kinase activity v3,[1]; 100 nM,96%
same,"Antitumor Activity, % regression",[2],54%
same,inhibition at 0.001 µM,[3],8%
same,inhibition at 0.01 µM,[3],39%
same,inhibition at 0.1 µM,[3],63%
same,rate of inhibiting kinase activity v1,[4]; 10 nM,79%
same,rate of inhibiting kinase activity v1,[4]; 100 nM,95%
same,rate of inhibiting kinase activity v2,[5]; 1 nM,22%
same,rate of inhibiting kinase activity v2,[5]; 10 nM,73%
same,rate of inhibiting kinase activity v2,[5]; 100 nM,95%
same,IC50,[11],1 nM
same,IC50,[7],8 nM
same,inhibition at 0.001 µM,[8],11%
same,inhibition at 0.01 µM,[8],70%
same,inhibition at 0.001 µM,[9],15%
same,inhibition at 0.01 µM,[9],74%
same,IC50,[10],2 nM
COc1cc(OC)c(F)c(COc2cnc(Nc3cc(CN4CCN(C)CC4)n(C)n3)nc2)c1F [Example 248],rate of inhibiting kinase activity v3,[1]; 1 nM,30%
same,rate of inhibiting kinase activity v3,[1]; 10 nM,55%
same,rate of inhibiting kinase activity v3,[1]; 100 nM,91%
same,inhibition in vivo at 1 mg/kg/day,[2]; [13],95%
same,inhibition at 0.001 µM,[3],3%
same,inhibition at 0.01 µM,[3],10%
same,inhibition at 0.1 µM,[3],43%
same,rate of inhibiting kinase activity v1,[4]; 1 nM,7%
same,rate of inhibiting kinase activity v1,[4]; 10 nM,40%
same,rate of inhibiting kinase activity v1,[4]; 100 nM,86%
same,rate of inhibiting kinase activity v2,[5]; 1 nM,6%
same,rate of inhibiting kinase activity v2,[5]; 10 nM,25%
same,rate of inhibiting kinase activity v2,[5]; 100 nM,78%
same,IC50,[11],4 nM
same,IC50,[7],50 nM
same,inhibition at 0.001 µM,[8],-5%
same,inhibition at 0.01 µM,[8],26%
same,inhibition at 0.1 µM,[8],83%
same,inhibition at 0.001 µM,[9],-3%
same,inhibition at 0.01 µM,[9],19%
same,inhibition at 0.1 µM,[9],82%
same,IC50,[10],5 nM
COc1cc(OC)c(F)c(COc2cnc(Nc3cnn(C[C@H](O)CO)c3)nc2)c1F [Ex 11],IC50,[11],1 nM
same,IC50,[7],13 nM
same,IC50,[10],2 nM
COc1cc(OC)c(Cl)c(COc2cnc(Nc3cnn(C4CCN(C)CC4)c3)nc2)c1Cl [Example 71],inhibition in vivo at 1 mg/kg/day,[2]; [13],50%
same,IC50,[11],2 nM
same,IC50,[7],10 nM
same,IC50,[10],2 nM
COc1cc(Nc2ncc(OCc3c(F)c(OC)cc(OC)c3F)cn2)ccc1N1CCC(N2CCN(C)CC2)CC1 [Example 56],inhibition at 0.001 µM,[3],5%
same,inhibition at 0.01 µM,[3],42%
same,inhibition at 0.1 µM,[3],64%
same,inhibition at 0.001 µM,[12]; 1 nM,29%
same,inhibition at 0.01 µM,[12]; 10 nM,83%
same,inhibition at 0.1 µM,[12]; 100 nM,90%
same,IC50,[11],2 nM
same,IC50,[6],2 nM
COc1cc(OC)c(F)c(COc2cnc(Nc3cnn(CCN4CCN(C)CC4)c3)nc2)c1F [Example 114],"Antitumor Activity, % regression",[2],33%
same,IC50,[11],2 nM
same,IC50,[7],7 nM
same,IC50,[10],1 nM
COc1cc(Nc2ncc(OCc3c(F)c(OC)cc(OC)c3F)cn2)ccc1N1CCN(C)CC1 [Example 57],IC50,[11],1 nM
